Among the data in paper PMC6821655, “Marine Archaeon Methanosarcina acetivorans Enhances Polyphosphate Metabolism Under Persistent Cadmium Stress” (Frontiers in Microbiology, 2019) are Km values, retold here.

Structures are written as SMILES.

The target of this assay is T1, Ma-PPK (Methanosarcina acetivorans, UniProt Q8TUI6).
T1 construct: recombinant full-length, heterologously overexpressed and purified; gene product 2187 bp (about 728 residues), 81 kDa; tag and host only in supplement
The assay is described as follows: polyphosphate synthesis, toluidine blue absorbance at […] nm. Type of assay: biochemical. The settings on record: variable Mg-ATP; trimethylsilyl polyP; 37 °C; Km given as unchanged with or without 120 mM K+; read-out: KmATP.

T1 sequence (Q8TUI6 entry or part of it): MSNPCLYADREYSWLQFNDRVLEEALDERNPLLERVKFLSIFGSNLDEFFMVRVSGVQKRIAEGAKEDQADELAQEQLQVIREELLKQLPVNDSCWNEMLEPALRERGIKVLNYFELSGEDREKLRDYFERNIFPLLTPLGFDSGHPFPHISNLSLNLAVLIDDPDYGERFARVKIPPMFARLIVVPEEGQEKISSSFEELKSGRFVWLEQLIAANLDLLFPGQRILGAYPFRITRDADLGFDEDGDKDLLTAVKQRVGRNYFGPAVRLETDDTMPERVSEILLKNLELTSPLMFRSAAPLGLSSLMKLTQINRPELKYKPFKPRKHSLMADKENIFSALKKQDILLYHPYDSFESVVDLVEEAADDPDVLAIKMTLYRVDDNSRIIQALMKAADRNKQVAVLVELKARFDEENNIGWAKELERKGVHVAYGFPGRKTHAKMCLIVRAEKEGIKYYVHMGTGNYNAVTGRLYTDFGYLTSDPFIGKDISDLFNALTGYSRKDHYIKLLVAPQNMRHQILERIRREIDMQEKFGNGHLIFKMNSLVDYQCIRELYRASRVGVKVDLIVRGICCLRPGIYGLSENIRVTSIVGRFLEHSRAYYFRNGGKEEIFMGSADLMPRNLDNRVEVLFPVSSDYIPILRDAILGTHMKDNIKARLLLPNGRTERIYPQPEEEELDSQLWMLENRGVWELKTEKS

Consider `Nc1ncnc2c1ncn2[C@@H]1O[C@H](COP(=O)(O)OP(=O)(O)OP(=O)(O)O)[C@@H](O)[C@H]1O` [ATP], for which the Km amounted to 1400 µM.
